Assay results as given in ChEMBL document CHEMBL4420076, “Amylin and calcitonin receptor agonist” (2017).
Numbered stars: 1 amine (or outer) side, 2 acyl side, 3 side chain; on linkers, the order of the positions; unused ones are H or OH. Peptide text beside a SMILES is read from it. * marks the point of attachment. C20 diacid = O=C(O)CCCCCCCCCCCCCCCCCCC(=O)*; C18 diacid = O=C(O)CCCCCCCCCCCCCCCCC(=O)*; γGlu = O=C(O)[C@H](CCC(=O)[*:2])N[*:1]

How the values were obtained:
Calcitonin receptor [1] = molecular target: T1, Calcitonin receptor (Homo sapiens, UniProt P30988); test: Agonist activity at human calcitonin receptor expressed in BHK570 cells assessed as increase in intracellular cAMP concentration incubated for 3 hrs in absence of albumin by CRE luciferase reporter gene assay; assay type: functional, cell-based
T1 sequence (P30988 whole entry): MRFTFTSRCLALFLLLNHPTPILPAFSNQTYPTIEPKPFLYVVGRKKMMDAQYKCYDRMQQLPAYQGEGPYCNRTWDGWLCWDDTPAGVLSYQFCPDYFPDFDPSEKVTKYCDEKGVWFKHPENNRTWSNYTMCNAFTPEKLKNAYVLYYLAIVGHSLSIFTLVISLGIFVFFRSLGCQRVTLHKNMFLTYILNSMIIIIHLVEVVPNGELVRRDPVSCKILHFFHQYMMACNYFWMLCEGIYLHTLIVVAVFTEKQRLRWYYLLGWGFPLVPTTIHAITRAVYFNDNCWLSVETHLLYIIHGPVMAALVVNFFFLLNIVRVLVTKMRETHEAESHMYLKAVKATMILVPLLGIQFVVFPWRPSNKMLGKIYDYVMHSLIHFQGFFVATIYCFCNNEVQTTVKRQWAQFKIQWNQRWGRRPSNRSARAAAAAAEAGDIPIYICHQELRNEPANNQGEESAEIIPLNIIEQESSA

[2] = Solubility in 100 mM bistrispropane buffer at pH 7.5 incubated for 18 hrs by UPLC analysis; assay type: physicochemical
[3] = Solubility in 100 mM bistrispropane buffer at pH 8.0 incubated for 18 hrs by UPLC analysis; assay type: physicochemical
[4] = Solubility in 100 mM bistrispropane buffer at pH 6.5 incubated for 18 hrs by UPLC analysis; assay type: physicochemical
Calcitonin receptor [5] = molecular target: T1, Calcitonin receptor; test: Displacement of [125I]-labeled human calcitonin from human calcitonin receptor expressed in BHK tkts13 whole cells incubated for 60 mins by scintillation proximity assay; assay type: cell-based
[6] = Solubility in 100 mM bistrispropane buffer at pH 7.0 incubated for 18 hrs by UPLC analysis; assay type: physicochemical
[7] = Solubility in 100 mM bistrispropane buffer at pH 6.0 incubated for 18 hrs by UPLC analysis; assay type: physicochemical
[8] = molecular target: T2, Amylin receptor AMY3; CALCR/RAMP3 (Homo sapiens, UniProt O60896+P30988); test: Agonist activity at human amylin receptor expressed in BHK570 cells co-expressing RAMP3 assessed as increase in intracellular cAMP concentration incubated for 3 hrs in absence of albumin by CRE luciferase reporter gene assay; assay type: functional, cell-based
T2 sequence (P30988 whole entry): T1 sequence (P30988 whole entry)
T2 sequence (O60896 whole entry): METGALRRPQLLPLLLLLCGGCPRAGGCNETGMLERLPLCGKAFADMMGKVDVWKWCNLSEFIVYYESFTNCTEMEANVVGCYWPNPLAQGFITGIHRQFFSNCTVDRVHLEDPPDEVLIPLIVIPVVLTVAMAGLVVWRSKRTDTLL

[9] = Solubility in 100 mM glycylglycine buffer at pH 3.0 incubated for 18 hrs by UPLC analysis; assay type: physicochemical
[10] = Solubility in 100 mM glycylglycine buffer at pH 5.0 incubated for 18 hrs by UPLC analysis; assay type: physicochemical
[11] = Solubility in 100 mM glycylglycine buffer at pH 4.0 incubated for 18 hrs by UPLC analysis; assay type: physicochemical
[12] = molecular target: T2, Amylin receptor AMY3; CALCR/RAMP3; test: Displacement of [125I]-labeled rat amylin from human amylin receptor expressed in BHK tkts13 whole cells co-expressing RAMP3 incubated for 60 mins by scintillation proximity assay; assay type: cell-based
Rattus norvegicus [13] = test: Reduction in food intake in Sprague-Dawley rat at 3 nmol/kg measured 0 to 24 hrs post dose relative to control; assay type: functional; parameters: scale not given: the % may be the effect or the level left
Rattus norvegicus [14] = test: Reduction in food intake in Sprague-Dawley rat at 3 nmol/kg measured 24 to 48 hrs post dose relative to control; assay type: functional; parameters: scale not given: the % may be the effect or the level left
[15] = molecular target: T2, Amylin receptor AMY3; CALCR/RAMP3; test: Agonist activity at human amylin receptor expressed in BHK570 cells co-expressing RAMP3 assessed as increase in intracellular cAMP concentration incubated for 3 hrs in presence of 10% FBS by CRE luciferase reporter gene assay; assay type: functional, cell-based
Calcitonin receptor [16] = molecular target: T1, Calcitonin receptor; test: Agonist activity at human calcitonin receptor expressed in BHK570 cells assessed as increase in intracellular cAMP concentration incubated for 3 hrs in presence of 10% FBS by CRE luciferase reporter gene assay; assay type: functional, cell-based

SMILES	EC50 (Calcitonin receptor [1]) [nM]	solubility at 18 h [2] [µM]	solubility at 18 h [3] [µM]	solubility at 18 h [4] [µM]	IC50 (Calcitonin receptor [5]) [nM]	solubility at 18 h [6] [µM]	solubility at 18 h [7] [µM]	EC50 [8] [nM]	solubility at 18 h [9] [µM]	solubility at 18 h [10] [µM]	solubility at 18 h [11] [µM]	IC50 [12] [nM]	EC50 [15] [nM]	EC50 (Calcitonin receptor [16]) [nM]	Activity (Rattus norvegicus [13]) [%]	Activity (Rattus norvegicus [14]) [%]
CC(C)C[C@H](NC(=O)[C@H](C)NC(=O)[C@H](C)NC(=O)[C@@H](NC(=O)[C@H](CO)NC(=O)[C@H](CC(C)C)NC(=O)[C@H](CCC(=O)O)NC(=O)[C@H](CO)NC(=O)[C@H](C)NC(=O)[C@H](CCC(=O)O)NC(=O)CCCCCCCCCCCCCCCCC(=O)O)[C@@H](C)O)C(=O)NCC(=O)N[C@@H](CCCNC(=N)N)C(=O)N[C@@H](CC(C)C)C(=O)N[C@@H](CO)C(=O)N[C@@H](C)C(=O)N[C@@H](CCC(=O)O)C(=O)N[C@@H](CC(C)C)C(=O)N[C@@H](Cc1cnc[nH]1)C(=O)N[C@@H](CCC(=O)O)C(=O)N[C@@H](CC(C)C)C(=O)N[C@@H](C)C(=O)N[C@H](C(=O)N[C@@H](CC(C)C)C(=O)N1CCC[C@H]1C(=O)N[C@@H](CCCNC(=N)N)C(=O)N[C@H](C(=O)N[C@@H](CCC(=O)O)C(=O)N[C@H](C(=O)NCC(=O)N1CCC[C@H]1C(=O)N[C@@H](CCC(=O)O)C(=O)N[C@@H](Cc1cnc[nH]1)C(=O)N1CCC[C@H]1C(N)=O)[C@@H](C)O)[C@@H](C)O)[C@@H](C)O ({C18 diacid}-EASELSTAALGRLSAELHELATLPRTETGPEHP-NH2)	0.017	≥ 200	≥ 200	≥ 200	1.17	≥ 200	≥ 200	0.02	≥ 200	≥ 200	≥ 200	1.27				
CC(C)C[C@H](NC(=O)[C@H](CCCNC(=N)N)NC(=O)CNC(=O)[C@H](CC(C)C)NC(=O)[C@@H](NC(=O)[C@H](C)NC(=O)[C@@H](NC(=O)[C@H](CO)NC(=O)[C@H](CC(C)C)NC(=O)[C@H](CCC(=O)O)NC(=O)[C@H](CO)NC(=O)[C@H](C)NC(=O)CC[C@H](NC(=O)CCCCCCCCCCCCCCCCCCC(=O)O)C(=O)O)[C@@H](C)O)[C@@H](C)O)C(=O)N[C@@H](CO)C(=O)N[C@@H](C)C(=O)N[C@@H](CCC(=O)O)C(=O)N[C@@H](CC(C)C)C(=O)N[C@@H](Cc1cnc[nH]1)C(=O)N[C@@H](CCC(=O)O)C(=O)N[C@@H](CC(C)C)C(=O)N[C@@H](CO)C(=O)N[C@H](C(=O)N[C@@H](Cc1ccc(O)cc1)C(=O)N1CCC[C@H]1C(=O)N[C@@H](CCCNC(=N)N)C(=O)N[C@H](C(=O)N[C@@H](CCC(=O)O)C(=O)N[C@H](C(=O)NCC(=O)N[C@@H](CO)C(=O)NCC(=O)N[C@@H](CO)C(=O)N1CCC[C@H]1C(N)=O)[C@@H](C)O)[C@@H](C)O)[C@@H](C)O ({C20 diacid-γGlu}-ASELSTATLGRLSAELHELSTYPRTETGSGSP-NH2)		≥ 200	≥ 200	≥ 200	2.94	≥ 200	≥ 200	0.022	≥ 200		≥ 200	2.61	0.15	0.105		
CC(C)C[C@H](NC(=O)[C@H](CCCNC(=N)N)NC(=O)CNC(=O)[C@H](CC(C)C)NC(=O)[C@@H](NC(=O)[C@H](C)NC(=O)[C@@H](NC(=O)[C@H](CO)NC(=O)[C@H](CC(C)C)NC(=O)[C@H](CCC(N)=O)NC(=O)[C@H](CO)NC(=O)[C@H](C)NC(=O)[C@H](CCC(=O)O)NC(=O)CC[C@H](NC(=O)CCCCCCCCCCCCCCCCCCC(=O)O)C(=O)O)[C@@H](C)O)C(C)C)C(=O)N[C@@H](CO)C(=O)N[C@@H](CCC(N)=O)C(=O)N[C@@H](CCC(=O)O)C(=O)N[C@@H](CC(C)C)C(=O)N[C@@H](Cc1cnc[nH]1)C(=O)N[C@@H](CCC(=O)O)C(=O)N[C@@H](CC(C)C)C(=O)N[C@@H](CCC(N)=O)C(=O)N[C@H](C(=O)N[C@@H](Cc1ccc(O)cc1)C(=O)N1CCC[C@H]1C(=O)N[C@@H](CCCNC(=N)N)C(=O)N[C@H](C(=O)NCC(=O)N[C@H](C(=O)NCC(=O)N[C@@H](CO)C(=O)NCC(=O)N[C@H](C(=O)N[C@@H](Cc1ccc(O)cc1)C(N)=O)[C@@H](C)O)[C@@H](C)O)[C@@H](C)O)[C@@H](C)O ({C20 diacid-γGlu}-EASQLSTAVLGRLSQELHELQTYPRTGTGSGTY-NH2)	0.056				0.796			0.066				0.338				

The remaining compounds from weak to strong by IC50 (Calcitonin receptor [5]), led by results:

EC50 (Calcitonin receptor [1]) [nM]	solubility at 18 h [2] [µM]	solubility at 18 h [3] [µM]	solubility at 18 h [4] [µM]	IC50 (Calcitonin receptor [5]) [nM]	solubility at 18 h [6] [µM]	solubility at 18 h [7] [µM]	EC50 [8] [nM]	solubility at 18 h [9] [µM]	solubility at 18 h [10] [µM]	solubility at 18 h [11] [µM]	IC50 [12] [nM]	EC50 [15] [nM]	EC50 (Calcitonin receptor [16]) [nM]	SMILES	Activity (Rattus norvegicus [13]) [%]	Activity (Rattus norvegicus [14]) [%]
0.007	≥ 200	≥ 200	≥ 200	0.752	≥ 200	≥ 200	0.008	≥ 200	≥ 200					CC(C)C[C@H](NC(=O)[C@H](CCC(=O)O)NC(=O)[C@H](C)NC(=O)[C@H](CO)NC(=O)[C@H](CC(C)C)NC(=O)[C@H](CCCNC(=N)N)NC(=O)CNC(=O)[C@H](CC(C)C)NC(=O)[C@@H](NC(=O)[C@H](C)NC(=O)[C@@H](NC(=O)[C@H](CO)NC(=O)[C@H](CC(C)C)NC(=O)[C@H](CCC(=O)O)NC(=O)[C@H](CO)NC(=O)[C@H](C)NC(=O)[C@H](CCC(=O)O)NC(=O)CCCCCCCCCCCCCCCCC(=O)O)[C@@H](C)O)C(C)C)C(=O)N[C@@H](C)C(=O)N[C@@H](CCC(=O)O)C(=O)N[C@@H](CC(C)C)C(=O)N[C@@H](C)C(=O)N[C@H](C(=O)N[C@@H](CC(C)C)C(=O)N1CCC[C@H]1C(=O)N[C@@H](CCCNC(=N)N)C(=O)N[C@H](C(=O)N[C@@H](CCC(=O)O)C(=O)N[C@H](C(=O)NCC(=O)N1CCC[C@H]1C(=O)N[C@@H](CCC(=O)O)C(=O)N[C@@H](CO)C(=O)N1CCC[C@H]1C(N)=O)[C@@H](C)O)[C@@H](C)O)[C@@H](C)O ({C18 diacid}-EASELSTAVLGRLSAELAELATLPRTETGPESP-NH2)	73	39
0.011	≥ 200	≥ 200	≥ 200	0.605	≥ 200	≥ 200	0.009	≥ 200	≥ 200	≥ 200				CC(C)C[C@H](NC(=O)[C@H](C)NC(=O)[C@H](C)NC(=O)[C@@H](NC(=O)[C@H](CO)NC(=O)[C@H](CC(C)C)NC(=O)[C@H](CCC(N)=O)NC(=O)[C@H](CO)NC(=O)[C@H](C)NC(=O)CC[C@H](NC(=O)CCCCCCCCCCCCCCCCC(=O)O)C(=O)O)[C@@H](C)O)C(=O)NCC(=O)N[C@@H](CCCNC(=N)N)C(=O)N[C@@H](CC(C)C)C(=O)N[C@@H](CO)C(=O)N[C@@H](C)C(=O)N[C@@H](CCC(=O)O)C(=O)N[C@@H](CC(C)C)C(=O)N[C@@H](Cc1cnc[nH]1)C(=O)N[C@@H](CCC(=O)O)C(=O)N[C@@H](CC(C)C)C(=O)N[C@@H](C)C(=O)N[C@H](C(=O)N[C@@H](CC(C)C)C(=O)N1CCC[C@H]1C(=O)N[C@@H](CCCNC(=N)N)C(=O)N[C@H](C(=O)N[C@@H](CCC(=O)O)C(=O)N[C@H](C(=O)NCC(=O)N[C@@H](CO)C(=O)NCC(=O)N[C@@H](CO)C(=O)N1CCC[C@H]1C(N)=O)[C@@H](C)O)[C@@H](C)O)[C@@H](C)O ({C18 diacid-γGlu}-ASQLSTAALGRLSAELHELATLPRTETGSGSP-NH2)		
